Measurements published in US5358947A, “Angiotensin II receptor blocking 2,3-substituted pyrazolo[1,5-a]-1,3,5-triazin-4(3H)-ones” (American Cyanamid Company, priority 1993, dated 1994).
Values joined by “and” are separate entries in the source; they are usually repeats but may differ in a detail not shown here. Equal entries are not always repeated.

System: ANGIOTENSIN II (AII) VASOPRESSOR RESPONSE
Assay: AII Challenge: angiotensin II (AII) vasopressor response in conscious rats
Assay type: in vivo
Set-up: Response After AII / Change / Average Change: unit not given here
Settings: for Control Before AII / Change / Response After AII: individual rat; for Control Before AII: in mmHg (unit assumed); for % Inhibition / Average Change: n = 2
Excerpt: By administering a compound of this invention to a rat, and then challenging with angiotensin II, a blockage of the vasopressor response is realized.
Conscious Male Okamoto-Aoki SHR, 16-20 weeks old, weighing approximately 330 g are purchased from Charles River Labs (Wilmington, Mass.). Conscious rats are restrained in a supine position with elastic tape. The area at the base of the tail is locally anesthetized by subcutaneous infiltration with 2% procaine. The ventral caudal artery and vein are isolated, and a cannula made of polyethylene (PE) 10-20 tubing (fused together by heat) is passed into the lower abdominal aorta and vena cava, respectively. The cannula is secured, heparinized (1,000 I.U./ml), sealed and the wound is closed. The animals are placed in plastic restraining cages in an upright position. The cannula is attached to s Statham P23Db pressure transducer, and pulsatile blood pressure is recorded to 10-15 minutes with a Gould Brush recorder. (Chan et al., (Drug Development Res., 18:75-94, 1989).
Angiotensin II (human sequence, Sigma Chem. Co., St. Louis, Mo.) of 0.05 and 0.1 ug/kg i.v. is injected into all rats (predosing response.). Then a test compound, vehicle or a known angiotensin II antagonist is administered i.v., i.p. or orally to each set of rats. The two doses of angiotensin II are given to each rat again at 30, 60, 90, 120, 180, 240 and 300 minutes post dosing the compound or vehicle. The vasopressor response of angiotensin II by a compound is calculated using the vasopressor response (increase in systolic blood pressure) of angiotensin II of each rat predosing the compound as 100%. A compound is considered active if at 30 mg/kg i.v. it antagonized at least 50% of the response.

[1] = 3 mg/kg i.v., AII 0.05 mcg/kg, 30 min post dose
[2] = 3 mg/kg i.v., AII 0.05 mcg/kg, 30 min post dose, listed as Ex. 17
[3] = 3 mg/kg i.v., AII 0.1 mcg/kg, 30 min post dose
[4] = 3 mg/kg i.v., AII 0.1 mcg/kg, 30 min post dose, listed as Ex. 17
[5] = 10 mg/kg i.v., AII 0.05 mcg/kg, 60 min post dose, listed as Ex. 17
[6] = 10 mg/kg i.v., AII 0.05 mcg/kg, 90 min post dose, listed as Ex. 17
[7] = 10 mg/kg i.v., AII 0.05 mcg/kg, 120 min post dose, listed as Ex. 17
[8] = 10 mg/kg i.v., AII 0.05 mcg/kg, 180 min post dose, listed as Ex. 17
[9] = 10 mg/kg i.v., AII 0.05 mcg/kg, 240 min post dose, listed as Ex. 17
[10] = 10 mg/kg i.v., AII 0.05 mcg/kg, 300 min post dose, listed as Ex. 17
[11] = 10 mg/kg i.v., AII 0.1 mcg/kg, 60 min post dose, listed as Ex. 17
[12] = 10 mg/kg i.v., AII 0.1 mcg/kg, 90 min post dose, listed as Ex. 17
[13] = 10 mg/kg i.v., AII 0.1 mcg/kg, 120 min post dose, listed as Ex. 17
[14] = 10 mg/kg i.v., AII 0.1 mcg/kg, 180 min post dose, listed as Ex. 17
[15] = 10 mg/kg i.v., AII 0.1 mcg/kg, 240 min post dose, listed as Ex. 17
[16] = 10 mg/kg i.v., AII 0.1 mcg/kg, 300 min post dose, listed as Ex. 17

CCCCc1nc2ccnn2c(=O)n1Cc1ccc(-c2ccccc2-c2nn[nH]n2)cc1 [Example 17, 2-Butyl-3-[[2'-(1H-tetrazol-5-yl)[1,1'-biphenyl]-4-yl]methyl]pyrazolo[1,5-a]-1,3,5-triazin-4(3H) -one]
Control Before AII [1]: 252 | Change [2]: 33 and 30 | Response After AII [2]: 285 and 265 | Control Before AII [2]: 235 | % Inhibition [1]: 34% | Average Change [1]: 31.5 | Control Before AII [3]: 255 | Change [4]: 25 and 35 | Response After AII [4]: 280 and 260 | Control Before AII [4]: 225 | % Inhibition [3]: 37% | Average Change [3]: 30 | Change [5]: 5 and 10 | Response After AII [5]: 255 and 245 | Control Before AII [5]: 250 and 235 | % Inhibition [5]: 84% | Average Change [5]: 7.5 | Change [6]: 25 | Response After AII [6]: 275 and 255 | Control Before AII [6]: 250 and 230 | % Inhibition [6]: 47% | Average Change [6]: 25 | Change [7]: 25 and 30 | Response After AII [7]: 270 and 255 | Control Before AII [7]: 245 and 225 | % Inhibition [7]: 42% | Average Change [7]: 27.5 | Change [8]: 20 and 30 | Response After AII [8]: 260 and 240 | Control Before AII [8]: 240 and 210 | % Inhibition [8]: 47% | Average Change [8]: 25 | Change [9]: 25 and 15 | Response After AII [9]: 270 and 250 | Control Before AII [9]: 245 and 235 | % Inhibition [9]: 58% | Average Change [9]: 20 | Change [10]: 40 and 30 | Response After AII [10]: 290 and 245 | Control Before AII [10]: 250 and 215 | % Inhibition [10]: 26% | Average Change [10]: 35 | Control Before AII (10 mg/kg i.v., AII 0.1 mcg/kg, 60 min post dose): 255 | Change [11]: 5 and 10 | Response After AII [11]: 260 and 235 | Control Before AII [11]: 225 | % Inhibition [11]: 84% | Average Change [11]: 7.5 | Change [12]: 15 and 35 | Response After AII [12]: 265 and 260 | Control Before AII [12]: 250 and 225 | % Inhibition [12]: 47% | Average Change [12]: 25 | Change [13]: 25 and 30 | Response After AII [13]: 275 and 260 | Control Before AII [13]: 250 and 230 | % Inhibition [13]: 42% | Average Change [13]: 27.5 | Control Before AII (10 mg/kg i.v., AII 0.1 mcg/kg, 180 min post dose): 240 | Change [14]: 30 and 40 | Response After AII [14]: 270 and 265 | Control Before AII [14]: 225 | % Inhibition [14]: 26% | Average Change [14]: 35 | Change [15]: 35 and 30 | Response After AII [15]: 290 and 270 | Control Before AII [15]: 255 and 240 | % Inhibition [15]: 32% | Average Change [15]: 32.5 | Change [16]: 35 and 25 | Response After AII [16]: 285 and 260 | Control Before AII [16]: 250 and 235 | % Inhibition [16]: 37% | Average Change [16]: 30
